The values below come from ChEMBL document CHEMBL1681655, “Identification of a new series of non-peptidic NK3 receptor antagonists” (Bioorg Med Chem Lett, 2011).

A value given as a limit tells only on which side of the number the result lay.

One series deals with T1, Neuromedin-K receptor (Homo sapiens, UniProt P29371).
T1 sequence (P29371 whole entry): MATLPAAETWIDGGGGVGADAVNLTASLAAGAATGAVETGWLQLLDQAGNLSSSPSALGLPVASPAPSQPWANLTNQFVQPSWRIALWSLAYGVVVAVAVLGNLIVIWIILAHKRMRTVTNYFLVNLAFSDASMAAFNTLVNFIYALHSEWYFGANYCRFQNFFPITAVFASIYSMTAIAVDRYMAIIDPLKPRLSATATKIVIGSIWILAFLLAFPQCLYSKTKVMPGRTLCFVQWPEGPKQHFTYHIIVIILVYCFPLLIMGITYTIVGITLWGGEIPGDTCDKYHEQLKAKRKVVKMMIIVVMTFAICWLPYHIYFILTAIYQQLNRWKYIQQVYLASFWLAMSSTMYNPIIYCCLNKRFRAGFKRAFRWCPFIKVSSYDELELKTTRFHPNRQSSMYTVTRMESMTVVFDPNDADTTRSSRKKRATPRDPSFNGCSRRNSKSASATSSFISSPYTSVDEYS
The series can be described thus: Displacement of [3H]Lu AE93103 from human NK3 receptor expressed in BHK cells. The format is cell-based. Background: Displacement assays read how much labelled ligand stays bound in the presence of the test substance.

The target of a further series is Substance-P receptor (Homo sapiens, UniProt P25103). As to the kind of experiment: Displacement of [125I]SP from human cloned NK1 receptor.
For the next series, the target named is T2, Substance-K receptor (Homo sapiens, UniProt P21452).
T2 sequence (P21452 whole entry): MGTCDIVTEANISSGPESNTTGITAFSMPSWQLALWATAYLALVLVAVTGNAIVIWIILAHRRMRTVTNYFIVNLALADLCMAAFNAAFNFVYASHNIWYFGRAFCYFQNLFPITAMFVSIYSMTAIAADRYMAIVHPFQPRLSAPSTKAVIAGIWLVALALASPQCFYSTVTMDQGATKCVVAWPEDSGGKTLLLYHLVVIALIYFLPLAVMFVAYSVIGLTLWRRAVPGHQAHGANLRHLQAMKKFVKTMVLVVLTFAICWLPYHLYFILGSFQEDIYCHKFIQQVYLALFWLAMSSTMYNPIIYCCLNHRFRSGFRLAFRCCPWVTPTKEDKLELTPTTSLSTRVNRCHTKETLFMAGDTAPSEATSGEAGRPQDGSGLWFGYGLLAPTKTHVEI
As to the kind of experiment: Displacement of [125I]NKA from human cloned NK2 receptor.

Series [1] concerns Liver microsomes. As to the kind of experiment: Intrinsic clearance in human liver microsomes. The format is ADME, Microsome. (Microsomes from liver hold many membrane-bound enzymes, among them those of drug oxidation.)
Series [2] in a line: Apparent permeability of the compound in human Caco2 cells. Particulars: caco-2. The format is ADME, cell-based. (In general: Caco-2 monolayers are a common model of the intestinal barrier.)
For a further series, the system named is Caco-2. The series can be described thus: Efflux ratio of permeability from […] in human Caco2 cells. The format is ADME, cell-based.
In series [3] the test system is Liver microsomes. As to the kind of experiment: Intrinsic clearance in rat liver microsomes. In kind it is ADME, Microsome.
The nature of series [4]: Oral bioavailability in rat. The format is ADME, organism-based. As to conditions: in vivo.
In the next series the test system is Gerbillinae. The series can be described thus: Reversal of senktide-induced explorative behavior in sc dosed gerbils compound pretreated 60 mins before senktide induction by […] assay. In kind it is functional.
A short description of series [5]: Ratio of drug level in brain to plasma in sc dosed gerbils after 90 mins. In kind it is ADME, organism-based. Particulars: gerbillinae, read-out: BPR.
A short description of series [6]: Clearance in rat. The format is ADME, organism-based. As to conditions: in vivo.

What is called Ki is a measure of affinity in units of concentration, obtained from inhibition or displacement. As usually defined, the Papp is the rate of passage across a membrane or cell layer, normalised by area and donor concentration. Usually bioavailability stands for dose-corrected exposure relative to a reference, in per cent. As usually defined, the ED50 is the midpoint of the dose-response relation. The term clearance denotes the rate of elimination divided by the concentration. High values mean efficient removal, low ones inefficient removal.

Chain of Substance-P receptor (P25103 whole entry): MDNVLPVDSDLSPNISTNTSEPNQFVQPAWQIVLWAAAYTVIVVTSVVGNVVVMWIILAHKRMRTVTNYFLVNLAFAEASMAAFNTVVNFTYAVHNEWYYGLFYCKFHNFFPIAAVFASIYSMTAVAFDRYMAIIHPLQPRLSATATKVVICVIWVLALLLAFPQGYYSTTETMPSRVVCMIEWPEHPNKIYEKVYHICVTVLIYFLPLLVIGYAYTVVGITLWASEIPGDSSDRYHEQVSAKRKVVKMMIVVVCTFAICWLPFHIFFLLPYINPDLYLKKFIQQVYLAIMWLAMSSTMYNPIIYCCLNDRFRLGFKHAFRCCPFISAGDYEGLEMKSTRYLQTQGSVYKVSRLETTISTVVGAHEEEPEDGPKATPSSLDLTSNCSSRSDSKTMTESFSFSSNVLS

For the compound `CC(=O)NC1(c2ccccc2)CCN(C[C@@H]2C[C@@]2(C(=O)N(C)Cc2ccccc2)c2ccc(Cl)c(Cl)c2)CC1`, the Ki at Neuromedin-K receptor amounted to 5.9 nM; at Substance-P receptor, 130 nM; at Substance-K receptor it was 88 nM. The same compound yielded a CL in the series with Liver microsomes [1] of 3.5 L/min. In series [2], the Papp came out at 5.6 ×10⁻⁶ cm/s. Also, the Ratio with Caco-2 turned out to be 2.6.

For `CN(Cc1ccccc1)C(=O)[C@@]1(c2ccc(Cl)c(Cl)c2)C[C@H]1CN1CCC(NS(C)(=O)=O)(c2ccccc2)CC1`, on Neuromedin-K receptor, the Ki is 7.8 nM. The compound further yielded a CL in the series on Liver microsomes [1] of 15 L/min. In addition, the Papp in series [2] stood at 0.1 ×10⁻⁶ cm/s. In addition, in the series on Caco-2, the Ratio is listed as 120.

At Neuromedin-K receptor, `CN(Cc1ccc(F)cc1)C(=O)[C@@]1(c2ccc(Cl)c(Cl)c2)C[C@H]1CN1CCN(C(=O)CN2CCOCC2)CC1` yielded a Ki of 3.3 nM. Besides, the CL with Liver microsomes [1] was 16 L/min. For the same compound, the Papp in series [2] amounted to 35 ×10⁻⁶ cm/s. In addition, the Ratio in the series with Caco-2 stood at 1.5.

As for `CN(Cc1ccc(F)cc1)C(=O)[C@@]1(c2ccc(Cl)c(Cl)c2)C[C@H]1CN1CCN(CC(=O)N2CCCC2)CC1`, the Ki at Neuromedin-K receptor was found to be 1.8 nM. In addition, the CL with Liver microsomes [1] was 12 L/min. Besides, the Papp in series [2] is 27 ×10⁻⁶ cm/s. The Ratio in the series on Caco-2 stood at 1.3.

`CN(C)C(=O)CCN1CCN(C[C@@H]2C[C@@]2(C(=O)N(C)Cc2ccc(F)cc2)c2ccc(Cl)c(Cl)c2)CC1`: the affinity at Neuromedin-K receptor, expressed as Ki, was 17 nM. The same compound showed a CL with Liver microsomes [1] of 8.5 L/min. Besides, the Papp in [2] came to 28 ×10⁻⁶ cm/s. The Ratio in the series with Caco-2 is listed as 1.1.

On to `CN(Cc1ccc(F)cc1)C(=O)[C@@]1(c2ccc(Cl)c(Cl)c2)C[C@H]1CN1CCN(C(=O)CN2CCCCC2)CC1`, for which the Ki on Neuromedin-K receptor turned out to be 7.3 nM. The CL in the series on Liver microsomes [1] turned out to be 10 L/min. Also, the Papp in series [2] turned out to be 2.9 ×10⁻⁶ cm/s. In addition, the Ratio in the series on Caco-2 is given as 4.2.

In turn, `CN(Cc1ccc(F)cc1)C(=O)[C@@]1(c2ccc(Cl)c(Cl)c2)C[C@H]1CN1CCN(C(=O)CN2CCCC2)CC1` yielded a Ki at Neuromedin-K receptor of 12 nM. For the same compound, the CL with Liver microsomes [1] is reported as 5.6 L/min. In series [2], the Papp stood at 5.7 ×10⁻⁶ cm/s. Moreover, the Ratio with Caco-2 was 3.5.

`CN(Cc1ccc(F)cc1)C(=O)[C@@]1(c2ccc(Cl)c(Cl)c2)C[C@H]1CN1CCN(S(=O)(=O)N(C)C)CC1`: the Ki at Neuromedin-K receptor amounted to 7.6 nM; on Substance-P receptor, 340 nM; at Substance-K receptor, 75 nM. The CL in the series with Liver microsomes [1] was > 20 L/min; with Liver microsomes [3], 210 mL/min. Further, in series [2], the Papp is 25 ×10⁻⁶ cm/s. The Ratio in the series with Caco-2 was determined as 1.5. Moreover, the bioavailability in series [4] is < 5%. For the same compound, the ED50 in the series with Gerbillinae is 14.2 mg/kg. Also, the Kp at 1.5 h in [5] is 1.9. In series [6], this compound gave a clearance of 108 mL/min/kg.

Consider `CCCNC[C@@H]1C[C@@]1(C(=O)N(C)Cc1ccc(F)cc1)c1ccc(Cl)c(Cl)c1`, for which affinity on Neuromedin-K receptor was put at a Ki of 150 nM. The CL with Liver microsomes [1] is reported as 0.9 L/min. Besides, the Papp in series [2] came out at 5.4 ×10⁻⁶ cm/s. Also, the Ratio in the series on Caco-2 was found to be 2.7.

`CC(C)NC[C@@H]1C[C@@]1(C(=O)N(C)Cc1ccc(F)cc1)c1ccc(Cl)c(Cl)c1`: the Ki at Neuromedin-K receptor came to 140 nM. Further, in the series on Liver microsomes [1], the CL is 0.9 L/min. Besides, in series [2], the Papp came out at 11 ×10⁻⁶ cm/s. In addition, in the series with Caco-2, the Ratio is 1.5.
